Measured values published in US4624950A, “Method for treating atherosclerosis hyperlipidema, lipid deposition on arterial walls, or raising the ratio of high density lipoprotein cholesterol to total cholesterol in serum” (Nissan Chemical Industries Ltd., priority 1983, dated 1986).

Experiments:
[1] = test system: glutathione related enzymes; assay: Effect on glutathione related enzymes of normal rats (Test 5); type: in vivo, rat (male S.D.); settings: 300 mg/kg/day, seven days
Method: The activities against serum lipid, the degree of hepatomegaly and the hepatic drug metabolizing systems of normal rats
Male S.D. rats (6 weeks old) were divided into groups of 5 rats each. The test compounds suspended in 5% gum arabic were given to the rats once a day for seven days in a daily dose of 300 mg/kg. Then, the rats were fasted for one day, blood samples were taken, and the total cholesterol, triglyceride, HDL-cholesterol in the serum were quantitatively analyzed. Further, the liver weight was measured, and the degree of hepatomegaly was determined by comparing the weight ratio per 100 g of the body weight with that of the control group. Furthermore, GOT and GPT values were measured, and the activities of cytochrome P-450 and glutathione related enzymes were also measured. These values were compared with those of the control groups to investigate any abnormality.

[2] = test system: cholesterol-fed hyperlipidemic rats; assay: Antihyperlipidemic activity in cholesterol-fed hyperlipidemic rats (Test 3); type: in vivo, rat (male S.D.)
Method: It is administered from once to three times per day. The dose may of course be varied depending upon the age, the weight or the condition of illness of the patient. […] In the following tests, the fractionation of lipoproteins was conducted by a dextran sulfate-MgCl2 precipitation method.
Cholesterol in serum was measured by means of a cholesterol measuring kit (Cholesterol C-Test Wako, manufactured by Wako Junyaku Co., Ltd.), and cholesterol in HDL was measured by means of NC Hi-Set, manufactured by Nippon Chemiphar Co., Ltd. The quantitative analysis of triglyceride was conducted by means of a triglyceride measuring kit (Triglyceride C-II-Test Wako, manufactured by Wako Junyaku Co., Ltd.).
Further, the change rate in the following Tables, was calculated by the following equation.
Change rate(%)=(A-B/A)×100 where A is the amount of serum lipids (mg/dl) of the control group, and B is the amount of serum lipids (mg/dl) of the group to which the therapeutic agent was administered.
The antihyperlipidemic activity in cholesterol-fed hyperlipidemic rats
Male S.D. rats weighing 80-90 g (30 days old) were divided into groups of 5 rats each. The test compounds suspended in 0.5% CMC-Na were given to the rats in a daily dose of 0.4 ml per 100 g rat via stomach tube every 10:00 a.m. for 7 or 14 days. Control groups were given an equal volume of the vehicle. […] The total cholesterol, triglyceride and HDL cholesterol in serum were measured. After sacrificed, the livers were excised, washed with physiological saline, blotted on filter paper and weighed. The degree of hepatomegaly was calculated by the following equation.
Degree of hepatomegaly (%)=(D-C/C)×100 where C is the liver weight (g) per 100 g body weight in the control animal, and D is the liver weight (g) per 100 g body weight in the drug treated animal.

[3] = test system: experimental atherosclerosis in rabbits induced by cholesterol diet; assay: Effect on experimental atherosclerosis in rabbits induced by cholesterol diet (Test 4); type: in vivo, rabbit (male)
Method: The effect of the compound of the formula I on experimental atherosclerosis in rabbits induced by cholesterol diet
Twenty-five male rabbits weighing 1.8-2.0 kg were used. They were fed with basic chow (Nippon clea, CR-3) for a stabilizing period of 5 days. After this period, they were fed with the chow containing 1% cholesterol, 100 g per head a day for a week (7 days) and plasma cholesterol was measured using a blood sample collected from acuricle vein.
According to the results of cholesterol values measured, 14 animals of high cholesterol plasma level were selected. They were divided into two groups to have nearly equal means and S.D. values of plasma cholesterol. One group of 7 rabbits was fed with the chow containing 1% cholesterol and another group of 7 rabbits was fed with the chow containing 1% cholesterol and 0.1% compound of the formula I in an amount of 100 g per head a day for 8 weeks.
Rabbits were sacrificed at the end of 8 weeks. Aortic arch and thoracic aorta were excised, and macroscopical changes were examined using the Sudan III stain method. According to the results of gross observation of the internal surface stained by Sudan III, the ratios of the atherosclerotic plaque area (the area stained by Sudan III) to the whole internal surface area were calculated. The ratio of inhibition of atherosclerosis of the compound of the formula I was obtained by comparing the average value with the value of the control.

[4] = 0.1% in 1% cholesterol chow, 8 weeks, vs control
[5] = 0.1% in 1% cholesterol chow, 100 g per head a day, 8 weeks

In the case of CN1C(=S)SC(c2ccccc2)N(C)C1c1ccccc1 (stereo not drawn) [Compound of the formula I, 3,5-dimethyl-4,6-diphenyl-tetrahydro-2H-1,3,5-thiadiazine-2-thione], the “Abnormalities in activity against glutathione related enzymes (in words)” value [1] is reported as “no abnormalities were observed”, the “Hepatomegaly (in words)” value ([2]; 7 or 14 days) is reported as “no hepatomegaly” and the “Lipid reducing and HDL-cholesterol increasing activity (in words)” value ([2]; 7th day) is reported as “not distinct very much”. The “Change rate, HDL-Chol” value ([2]; 7th day, 10 mg/kg/day p.o.) was -12.7%, the “Change rate, TG” value ([2]; 7th day, 10 mg/kg/day p.o.) was -13.8% and the “Change rate, Total-Chol” value ([2]; 7th day, 10 mg/kg/day p.o.) was -3.3%. For the same compound, the Degree of hepatomegaly ([2]; 7th day, 10 mg/kg/day p.o.) was “+4.0%”, the “Serum lipid, HDL-Chol” value ([2]; 7th day, 10 mg/kg/day p.o.) was 15.8 mg/dL and the “Serum lipid, TG” value ([2]; 7th day, 10 mg/kg/day p.o.) was 105.9 mg/dL. For the same compound, the “Serum lipid, Total-Chol” value ([2]; 7th day, 10 mg/kg/day p.o.) was 421.7 mg/dL, the “Change rate, HDL-Chol” value ([2]; 7th day, 50 mg/kg/day p.o.) was 0% and the “Change rate, TG” value ([2]; 7th day, 50 mg/kg/day p.o.) was -15.3%. The “Change rate, Total-Chol” value ([2]; 7th day, 50 mg/kg/day p.o.) was -33.6%, the Degree of hepatomegaly ([2]; 7th day, 50 mg/kg/day p.o.) was “+2.0%” and the “Serum lipid, HDL-Chol” value ([2]; 7th day, 50 mg/kg/day p.o.) was 18.1 mg/dL. The “Serum lipid, TG” value ([2]; 7th day, 50 mg/kg/day p.o.) was 104.0 mg/dL, the “Serum lipid, Total-Chol” value ([2]; 7th day, 50 mg/kg/day p.o.) was 289.8 mg/dL and the “Change rate, HDL-Chol” value ([2]; 7th day, 100 mg/kg/day p.o.) was “+6.1%”. The “Change rate, TG” value ([2]; 7th day, 100 mg/kg/day p.o.) was -24.5%, the “Change rate, Total-Chol” value ([2]; 7th day, 100 mg/kg/day p.o.) was -32.4% and the “Serum lipid, HDL-Chol” value ([2]; 7th day, 100 mg/kg/day p.o.) was 19.2 mg/dL. For the same compound, the “Serum lipid, TG” value ([2]; 7th day, 100 mg/kg/day p.o.) was 92.7 mg/dL, the “Serum lipid, Total-Chol” value ([2]; 7th day, 100 mg/kg/day p.o.) was 294.7 mg/dL and the “Change rate, HDL-Chol” value ([2]; 7th day, 150 mg/kg/day p.o.) was -4.4%. For the same compound, the “Change rate, TG” value ([2]; 7th day, 150 mg/kg/day p.o.) was -46.1%, the “Change rate, Total-Chol” value ([2]; 7th day, 150 mg/kg/day p.o.) was -11.7% and the Degree of hepatomegaly ([2]; 7th day, 150 mg/kg/day p.o.) was “+12.0%”. The “Serum lipid, HDL-Chol” value ([2]; 7th day, 150 mg/kg/day p.o.) was 17.3 mg/dL, the “Serum lipid, TG” value ([2]; 7th day, 150 mg/kg/day p.o.) was 66.2 mg/dL and the “Serum lipid, Total-Chol” value ([2]; 7th day, 150 mg/kg/day p.o.) was 385 mg/dL. The “Lipid reducing and HDL-cholesterol increasing activity (in words)” value ([2]; 14th day) was “strong lipid reducing activity and HDL-cholesterol increasing activity”, the “Change rate, HDL-Chol” value ([2]; 14th day, 10 mg/kg/day p.o.) was “+129.9%” and the “Change rate, TG” value ([2]; 14th day, 10 mg/kg/day p.o.) was -44.6%. The “Change rate, Total-Chol” value ([2]; 14th day, 10 mg/kg/day p.o.) was -42.5%, the Degree of hepatomegaly ([2]; 14th day, 10 mg/kg/day p.o.) was “+5.3%” and the “Serum lipid, HDL-Chol” value ([2]; 14th day, 10 mg/kg/day p.o.) was 20.0 mg/dL. For the same compound, the “Serum lipid, TG” value ([2]; 14th day, 10 mg/kg/day p.o.) was 92.5 mg/dL, the “Serum lipid, Total-Chol” value ([2]; 14th day, 10 mg/kg/day p.o.) was 336.5 mg/dL and the “Change rate, HDL-Chol” value ([2]; 14th day, 50 mg/kg/day p.o.) was “+135.6%”. For the same compound, the “Change rate, TG” value ([2]; 14th day, 50 mg/kg/day p.o.) was -47.5%, the “Change rate, Total-Chol” value ([2]; 14th day, 50 mg/kg/day p.o.) was -33.5% and the Degree of hepatomegaly ([2]; 14th day, 50 mg/kg/day p.o.) was “+1.8%”. For the same compound, the “Serum lipid, HDL-Chol” value ([2]; 14th day, 50 mg/kg/day p.o.) was 20.5 mg/dL, the “Serum lipid, TG” value ([2]; 14th day, 50 mg/kg/day p.o.) was 87.7 mg/dL and the “Serum lipid, Total-Chol” value ([2]; 14th day, 50 mg/kg/day p.o.) was 389.2 mg/dL. The “Change rate, HDL-Chol” value ([2]; 14th day, 100 mg/kg/day p.o.) was “+186.2%”, the “Change rate, TG” value ([2]; 14th day, 100 mg/kg/day p.o.) was -44.8% and the “Change rate, Total-Chol” value ([2]; 14th day, 100 mg/kg/day p.o.) was -53.7%. The Degree of hepatomegaly ([2]; 14th day, 100 mg/kg/day p.o.) was “+10.5%”, the “Serum lipid, HDL-Chol” value ([2]; 14th day, 100 mg/kg/day p.o.) was 24.9 mg/dL and the “Serum lipid, TG” value ([2]; 14th day, 100 mg/kg/day p.o.) was 92.2 mg/dL. The “Serum lipid, Total-Chol” value ([2]; 14th day, 100 mg/kg/day p.o.) was 271.3 mg/dL, the “Change rate, HDL-Chol” value ([2]; 14th day, 150 mg/kg/day p.o.) was “+147.1%” and the “Change rate, TG” value ([2]; 14th day, 150 mg/kg/day p.o.) was -53.8%. The “Change rate, Total-Chol” value ([2]; 14th day, 150 mg/kg/day p.o.) was -60.9%, the Degree of hepatomegaly ([2]; 14th day, 150 mg/kg/day p.o.) was “+5.3%” and the “Serum lipid, HDL-Chol” value ([2]; 14th day, 150 mg/kg/day p.o.) was 21.5 mg/dL. For the same compound, the “Serum lipid, TG” value ([2]; 14th day, 150 mg/kg/day p.o.) was 77.1 mg/dL, the “Serum lipid, Total-Chol” value ([2]; 14th day, 150 mg/kg/day p.o.) was 228.6 mg/dL and the “Ratio of inhibition of atherosclerosis (Ratio of Improvement), Aortic arch” value [3, 4] was 13.8%. For the same compound, the “Ratio of inhibition of atherosclerosis (Ratio of Improvement), Thoracic aorta” value [3, 4] was 67.7%, the “Ratio of inhibition of atherosclerosis (Ratio of Improvement), Total aorta” value [3, 4] was 45.3% and the “Atherosclerotic plaque area stained by Sudan III, Aortic arch” value [3, 5] was 77.7%. For the same compound, the “Atherosclerotic plaque area stained by Sudan III, Thoracic aorta” value [3, 5] was 11.0%, the “Atherosclerotic plaque area stained by Sudan III, Total aorta” value [3, 5] was 26.3% and the “Inhibition of experimental atherosclerosis (in words)” value ([3]; 1% cholesterol diet) was “inhibits experimental atherosclerosis”.
